Source: US11891386B2, “Indole compounds and their use” (ARIAGEN, INC., priority 2017, dated 2024)
Where two headings read alike, the source gives them in different places.

Legend:
[1] = tested on: EMT-6 syngeneic mouse tumor model (breast cancer); experiment: Anti-tumor activity, EMT-6 syngeneic mouse tumor model; type: in vivo; settings: for anti-tumor potency, in words / tumor growth and survival, in words / complete tumor regression (CR): EMT-6 model; for anti-tumor potency, in words / tumor growth and survival, in words: 40 mpk
Procedure: (§1) This example describes in vivo studies that evaluated the anti-cancer efficacy of the disclosed indole compounds in syngeneic mouse tumor models. Mice implanted subcutaneously with four types of cancer cells were treated with test indole compounds or vehicle controls as described below.
(§2) A monolayer culture of tumor cells was maintained in vitro in DMEM or RPMI1640 medium supplemented with 10% fetal bovine serum at 37° C. in an atmosphere of 5% CO2. Cells in exponential growth phase were harvested and quantitated by cell counter before tumor inoculation. The cell lines used are described in the table below.
(§3) Four subcutaneous syngeneic mouse tumor models were generated by innoculating female BALB/C or C57BL/6 mice with cancer cells at their right lower or front flank as detailed in the table below:
(§4) Each mouse was inoculated subcutaneously with tumor cells in 0.1 mL of PBS. Treatments were started when the mean tumor size reached approximately 80-120 mm^3 (around 100 mm^3). The administration of the indole compounds and the animal number in each study group are shown in the study design. The date of tumor cell inoculation was denoted as day 0.
(§5) The indole compounds were dissolved in DMSO at the final concentration of 26.7 mg/ml and stored at room temperature.
(§6) Randomization of animals was started when the mean tumor size reached approximately 90 mm^3 to form the mouse study groups. The randomization was performed based on “Matched distribution” method using the multi-task method (StudyDirector™ software, version 3.1.399.19)/randomized block design. The mouse groups (ten in each group) were treated with vehicle (DMSO) or the indole compounds at a dose of 40 mg/kg by i.p. injection, QD for 28 days or longer.
(§7) After tumor cell inoculation, the mice were checked daily for morbidity and mortality. During routine monitoring, the mice were checked for tumor growth and any effects of the treatment on behavior such as mobility, food and water consumption, body weight gain/loss (body weights were measured twice per week after randomization), eye/hair matting, and any other abnormalities. Mortality and observed clinical signs were recorded for individual mice in detail.
(§8) Tumor volumes were measured twice per week in two dimensions using a caliper, and the volume was expressed in mm^3 using the formula: V=(L×W×W)/2, where V is tumor volume, L is tumor length (the longest tumor dimension) and W is tumor width (the longest tumor dimension perpendicular to L). Dosing as well as tumor and body weight measurements was conducted in a Laminar Flow Cabinet. The body weights and tumor volumes were measured by using StudyDirector™ software (version 3.1.399.19). Dosing Holiday
Tumor growth inhibition percentage (TGI %) is an indicator for antitumor activity of a drug compound, and expressed as: TGI (%)=100×(1−T/C), where T and C are the mean tumor volume (or weight) of the treated and control groups, respectively, on a given day. Statistical analysis of the difference in mean tumor volume (MTV) among the groups was conducted using the data collected on the day when the MTV of the vehicle group reached the humane endpoints, so that TGI could be derived for all or most mice enrolled in the study.
In Studies 1 and 3, the anti-tumor activity of ARI-001 in parallel with ARI-002 at 160 mg/kg (mpk), and the anti-tumor activity of ARI-087 in parallel with ARI-002 at 40 mpk were assessed using the EMT-6, Pan02, A20, and LL/2 models. Because EMT-6 provides a fast-growing model that enables relatively quick differentiation of performance between compounds, this syngeneic mouse tumor model was chosen for the other studies. In Study 2, the anti-tumor activity of ARI-002 was compared with that of ARI-004 at 10, 40, and 80 mpk. In Study 4, the anti-tumor activity of ARI-087 was compared with that of ARI-140. In Study 5, the anti-tumor activity of ARI-087 was evaluated in parallel with ARI-143 and ARI-149 at 40 mpk. […]

[2] = In vivo pharmacokinetic study in Sprague-Dawley rats; settings: rat; for bioavailability: Sprague-Dawley, plasma, po, 10 mg/kg; for % of Hepatisc Blood Flow: IV (2 mg/kg); for IV PK profile compared to ARI-001, ARI-002, and ARI-004, in words / IV AUCinf, times higher than ARI-002 / plasma clearance, % of that of ARI-002: IV
Procedure: This example describes pharmacokinetic (PK) studies of the various indole compounds described herein in rats, a rodent species widely used for pre-clinical toxicology evaluation. In the present studies, the test compounds were given to groups of Sprague-Dawley rats (N=3 in each group) intravenously (IV) at 2 mg/kg or orally (PO) at 10 mg/kg. IV doses were formulated in DMSO, while PO doses were formulated in a 50/50 mixture of PEG400 and Tween 80. Blood samples were collected at pre-dose and over a period of 24 hours post-dose. Plasma concentrations of the indole compounds were determined by HPLC.

[3] = tested on: A20 syngeneic mouse tumor model (B cell lymphoma); experiment: Anti-tumor activity, A20 syngeneic mouse tumor model; type: in vivo; settings: Study 3, A20, 40 mpk i.p. QD, D28
Procedure: as §1, §2, §3, §4, §5, §6, §7, §8
(§9) Tumor growth inhibition percentage (TGI %) is an indicator for antitumor activity of a drug compound, and expressed as: TGI (%)=100×(1−T/C), where T and C are the mean tumor volume (or weight) of the treated and control groups, respectively, on a given day. […]
(§10) In Studies 1 and 3, the anti-tumor activity of ARI-001 in parallel with ARI-002 at 160 mg/kg (mpk), and the anti-tumor activity of ARI-087 in parallel with ARI-002 at 40 mpk were assessed using the EMT-6, Pan02, A20, and LL/2 models. […] In Study 5, the anti-tumor activity of ARI-087 was evaluated in parallel with ARI-143 and ARI-149 at 40 mpk. […]

[4] = tested on: LL/2 syngeneic mouse tumor model (lung cancer); experiment: Anti-tumor activity, LL/2 syngeneic mouse tumor model; type: in vivo; settings: Study 3, LL/2, 40 mpk i.p. QD, D28
Procedure: as §1, §2, §3, §4, §5, §6, §7, §8, §9, §10

[5] = tested on: Pan02 syngeneic mouse tumor model (pancreatic cancer); experiment: Anti-tumor activity, Pan02 syngeneic mouse tumor model; type: in vivo; settings: Study 3, Pan02, 40 mpk i.p. QD, D60
Procedure: as §1, §2, §3, §4, §5
Randomization of animals was started when the mean tumor size reached approximately 90 mm^3 to form the mouse study groups. […]
as §7
Tumor volumes were measured twice per week in two dimensions using a caliper, and the volume was expressed in mm^3 using the formula: V=(L×W×W)/2, where V is tumor volume, L is tumor length (the longest tumor dimension) and W is tumor width (the longest tumor dimension perpendicular to L). […] The body weights and tumor volumes were measured by using StudyDirector™ software (version 3.1.399.19). […]
as §9
In Studies 1 and 3, the anti-tumor activity of ARI-001 in parallel with ARI-002 at 160 mg/kg (mpk), and the anti-tumor activity of ARI-087 in parallel with ARI-002 at 40 mpk were assessed using the EMT-6, Pan02, A20, and LL/2 models. […]

hepatocytes = experiment: Metabolite analysis in hepatocytes by high-resolution mass spectrometry; type: in vitro ADME; settings: preliminary studies
Excerpt: It remains unclear whether halogen substitutions at the indole ring impact the activity and metabolic profiles of the indole compounds described herein.

[6] = Mus musculus, EMT6, ip, 672 h, Study 4, EMT-6, 40 mpk i.p. QD, D28, read-out: TGI (tumor growth inhibition)
[7] = Mus musculus, EMT6, ip, 624 h, Study 6, EMT-6, 40 mpk i.p. QD, D26, read-out: TGI (tumor growth inhibition)
[8] = Mus musculus, EMT6, ip, 720 h, Study 5, EMT-6, 40 mpk i.p. QD, D30, read-out: TGI (tumor growth inhibition)
[9] = PO (10 mg/kg) vs IV (2 mg/kg), read-out: F % (bioavailability)

| SMILES | anti-tumor potency, in words [1] | inhibition in vivo at 40 mg/kg [1, 8] | bioavailability [2, 9] | % of Hepatisc Blood Flow [2] | also measured |
| --- | --- | --- | --- | --- | --- |
| CCC(=O)c1csc(C(=O)c2c[nH]c3c(F)cccc23)n1 [ARI-140, 1-(2-(7-fluoro-1H-indole-3-carbonyl)thiazol-4-yl)propan-1-one] |  |  |  |  | inhibition in vivo at 40 mg/kg [1, 6]: 30.6% |
| O=C(c1nc(-c2nnco2)cs1)c1c[nH]c2ccccc12 [ARI-056, (4-(1,3,4-oxadiazol-2-yl)thiazol-2-yl)(1H-indol-3-yl)methanone] | less anti-tumor potency than ARI-087 |  |  |  | inhibition in vivo at 40 mg/kg [1, 7]: 34.3% |
| NCc1nc(-c2csc(C(=O)c3c[nH]c4c(F)cccc34)n2)no1 [ARI-146, (4-(5-(aminomethyl)-1,2,4-oxadiazol-3-yl)thiazol-2-yl)(7-fluoro-1H-indol-3-yl)methanone] | less anti-tumor potency than ARI-087 | 23.2% |  |  |  |
| Nc1nnc(-c2csc(C(=O)c3c[nH]c4c(F)cccc34)n2)o1 [ARI-118, (4-(5-amino-1,3,4-oxadiazol-2-yl)thiazol-2-yl)(7-fluoro-1H-indol-3-yl)methanone] | superior anti-tumor activity than ARI-087 |  | 0.2% | 17% | IV PK profile compared to ARI-001, ARI-002, and ARI-004, in words [2]: improved IV PK profiles; tumor growth and survival, in words [1]: delay tumor growth and prolong survival; complete tumor regression (CR) ([1]; Study 4, by day 46): 1 out of 10; inhibition in vivo at 40 mg/kg [1, 6]: 54.5% |
| CCC(=O)c1csc(C(=O)c2c[nH]c3cc(F)c(F)cc23)n1 [ARI-149, 1-(2-(5,6-difluoro-1H-indole-3-carbonyl)thiazol-4-yl)propan-1-one] |  | 42.7% | 6.8% | 13% | bioavailability ([2]; PO, read-out: absolute oral bioavailability, % of ARI-002): 62%; IV AUCinf, times higher than ARI-002 [2]: 2.3 times; plasma clearance, % of that of ARI-002 [2]: 50%; PO AUCinf, times higher than that of ARI-002 ([2]; PO): about 1.4 times |
| CNC(=O)c1csc(C(=O)c2c[nH]c3ccccc23)n1 [ARI-004] |  |  | 33.6% | 189% | inhibition in vivo at 10 mg/kg ([1]; Mus musculus, EMT6, 648 h, Study 2, EMT-6, 10 mpk, D27, read-out: TGI (tumor growth inhibition)): -38.2%; inhibition in vivo at 40 mg/kg ([1]; Mus musculus, EMT6, 648 h, Study 2, EMT-6, 40 mpk, D27, read-out: TGI (tumor growth inhibition)): 0.3%; inhibition in vivo at 80 mg/kg ([1]; Mus musculus, EMT6, 648 h, Study 2, EMT-6, 80 mpk, D27, read-out: TGI (tumor growth inhibition)): 15.8% |
| NCc1nnc(-c2csc(C(=O)c3c[nH]c4c(F)cccc34)n2)o1 [ARI-145, (4-(5-(aminomethyl)-1,3,4-oxadiazol-2-yl)thiazol-2-yl)(7-fluoro-1H-indol-3-yl)methanone] | less anti-tumor potency than ARI-087 | 10.5% |  |  |  |
| CCC(=O)c1csc(C(=O)c2c[nH]c3ccc(Cl)cc23)n1 [ARI-067, 1-(2-(5-chloro-1H-indole-3-carbonyl)thiazol-4-yl)propan-1-one] |  |  | 3.5% | 350% |  |
| Nc1nnc(-c2csc(C(=O)c3c[nH]c4ccccc34)n2)o1 [ARI-083, (4-(5-amino-1,3,4-oxadiazol-2-yl)thiazol-2-yl)(1H-indol-3-yl)methanone] |  |  | 1% | 45% | IV PK profile compared to ARI-001, ARI-002, and ARI-004, in words [2]: improved IV PK profiles; TGI (tumor growth inhibition) [3]: 22% D28; TGI (tumor growth inhibition) [4]: 24.0% D28; inhibition in vivo at 40 mg/kg ([1]; Mus musculus, EMT6, ip, 648 h, Study 3, EMT-6, 40 mpk i.p. QD, D27, read-out: TGI (tumor growth inhibition)): 21.2%; TGI (tumor growth inhibition) [5]: 2.7% D60 |
| Nc1nnc(-c2csc(C(=O)c3c[nH]c4ccccc34)n2)s1 [ARI-090, (4-(5-amino-1,3,4-thiadiazol-2-yl)thiazol-2-yl)(1H-indol-3-yl)methanone] | less anti-tumor potency than ARI-087 |  |  |  | inhibition in vivo at 40 mg/kg [1, 7]: 30.1% |
| CCC(=O)c1csc(C(=O)c2c[nH]c3cc(F)ccc23)n1 [ARI-143, 1-(2-(6-fluoro-1H-indole-3-carbonyl)thiazol-4-yl)propan-1-one] | most potent ketone derivative | 65.9% | 19.3% | 19% | IV AUCinf, times higher than ARI-002 [2]: 1.5 times; plasma clearance, % of that of ARI-002 [2]: 74%; PO AUCinf, times higher than that of ARI-002 ([2]; PO): 2.6 times; absolute oral bioavailability, times higher than ARI-002 ([2]; PO): 1.8 times; primary metabolites of the indole ring identified (hepatocytes): fewer primary metabolites of the indole ring; tumor growth and survival, in words [1]: delay tumor growth and prolong survival; complete tumor regression (CR) ([1]; Study 5, by day 51): 2 out of 10 |
| Nc1nnc(-c2csc(C(=O)c3c[nH]c4cc(Cl)c(Cl)cc34)n2)o1 [ARI-120, (4-(5-amino-1,3,4-oxadiazol-2-yl)thiazol-2-yl)(5,6-dichloro-1H-indol-3-yl)methanone] | less anti-tumor potency than ARI-087 | 27.2% |  |  |  |
| Nc1nnc(-c2csc(C(=O)c3c[nH]c4ccc(F)cc34)n2)o1 [ARI-148, (4-(5-amino-1,3,4-oxadiazol-2-yl)thiazol-2-yl)(5-fluoro-1H-indol-3-yl)methanone] | less anti-tumor potency than ARI-087 | 4.8% |  |  |  |
